Test results from US20120308570A1, “METHODS FOR TREATING DISEASES” (priority 2009, published 2012).

Key:
Assay type in all cases: cell-based, mouse
iNOS protein in BMDM = assay: iNOS expression in shRNA infected BMDM (Western blot)
Method: Bone marrow-derived macrophages were generated as described and re-plated at 1.0×10^6 cells/well on 6-well plates (Costar) in DME containing 10% FCS and 20% L-cell conditioned media. Cells were incubated with IFNγ and LPS as described, and lysed in KALB lysis buffer (Nicholson et al., 1995) containing protease inhibitors (Complete Cocktail tablets, Roche), 1 mM phenylmethylsulphonyl fluoride, 1 mM Na3VO4 and 1 mM NaF. Proteins were immunoprecipitated using anti-Flag antibody conjugated to Sepharose (M2; EASTMAN KODAK). Proteins were separated by sodium dodecyl sulphatepolyacrylamide gel electrophoresis (SDS-PAGE) under reducing conditions and electrophoretically transferred to Biotrace PVDF membranes (Pall Corp. Ann Arbor, Mich.). Membranes were blocked overnight in 10% w/v skim milk and incubated with primary antibody for 2 h. Antibody binding was visualized with either peroxidase-conjugated goat anti-rat immunoglobulin (Southern Biotech) or peroxidase-conjugated sheep anti-rabbit immunoglobulin (Chemicon, Melbourne, Australia), and the enhanced chemiluminescence (ECL) system (Amersham, Little Chalfont, Buckinghamshire, UK). To re-blot, the membrane was first stripped of antibodies in 0.1 M glycine, pH 2.9.
Oligonucleotides targeting SPSB 1 ([…] (SEQ ID NO:84)) were designed as previously described (27). shRNAmir constructs were created by annealing the oligonucleotides in 5× annealing buffer (0.5 M potassium acetate, 0.01 M magnesium acetate and 0.15 M HEPES pH 7.4) for 5 min at 95° C., followed by incubation for 10 min at 80° C. and a 5-7 h ramp from 80° C. to 4° C. (reducing by 0.5° C. every 2.5 min). Annealed oligonucleotides were subsequently subcloned into the LMP vector (Dickins et al; 2005 & 2006). Non-sense shRNAmir and luciferase control constructs in the LMS vector were a kind gift from Dr. Marnie Blewitt (Majewski et al, 2008) and Dr Ross Dickins (unpublished data) respectively. To create retrovirus, 293T cells were transfected as described previously (Majewski et al, 2008). The medium was replaced with DMEM containing 10% FBS and 20% L-cell conditioned medium 24 h after transfection and viral supernatants harvested the following day. Total bone marrow was collected and non-adherent haematopoietic cells were harvested by centrifugation and red blood cells removed by washing in red cell removal buffer (154.4 mM NH4Cl, 0.1 mM EDTA, 12 mM. NaHCO3). Retroviral supernatants were applied to culture dishes pre-treated with 32 μg/ml RetroNectin (Takara Biosciences, Shiga, Japan) and centrifuged for 1 h at 4000 g at 4° C. […]
To analyse the kinetics of iNOS induction in BMDM infected with an Spsb1 shRNA construct cells were stimulated with 100 ng/ml LPS or 25 μg/ml PolyIC for various times, then lysed and iNOS expression analysed by Western blot. […]

NO production in BMDM = assay: Nitric oxide production in shRNA infected BMDM (Griess assay)
Method: As a measure of nitric oxide production, 100 μl of culture supernatants were assayed for nitrite by reaction with 10 μl of Griess reagent A (1% sulfanilamide in 5% phosphoric acid) for 10 min at room temperature, followed by the addition of 10 μl Griess reagent B [0.14% N-(1-naphthyl)ethylenediamine dihydrochloride], and nitrite content determined essentially as described (Scott et al., 2000).
Oligonucleotides targeting SPSB 1 ([…] (SEQ ID NO:84)) were designed as previously described (27). shRNAmir constructs were created by annealing the oligonucleotides in 5× annealing buffer (0.5 M potassium acetate, 0.01 M magnesium acetate and 0.15 M HEPES pH 7.4) for 5 min at 95° C., followed by incubation for 10 min at 80° C. and a 5-7 h ramp from 80° C. to 4° C. (reducing by 0.5° C. every 2.5 min). Annealed oligonucleotides were subsequently subcloned into the LMP vector (Dickins et al; 2005 & 2006). Non-sense shRNAmir and luciferase control constructs in the LMS vector were a kind gift from Dr. Marnie Blewitt (Majewski et al, 2008) and Dr Ross Dickins (unpublished data) respectively. To create retrovirus, 293T cells were transfected as described previously (Majewski et al, 2008). The medium was replaced with DMEM containing 10% FBS and 20% L-cell conditioned medium 24 h after transfection and viral supernatants harvested the following day. Total bone marrow was collected and non-adherent haematopoietic cells were harvested by centrifugation and red blood cells removed by washing in red cell removal buffer (154.4 mM NH4Cl, 0.1 mM EDTA, 12 mM. NaHCO3). Retroviral supernatants were applied to culture dishes pre-treated with 32 μg/ml RetroNectin (Takara Biosciences, Shiga, Japan) and centrifuged for 1 h at 4000 g at 4° C. Bone marrow cells were infected by co-culturing with the virus in the presence of 4 μg/ml 30 polybrene-containing medium for 24 h. […]
Using a Griess assay, NO production was measured in response to 20 ng/ml LPS and 25 μg/ml PolyIC in BMDM infected with non-sense or Spsb1 shRNA at 24 h and 48 h. […]

Spsb1 mRNA = assay: Spsb1 knockdown in BMDM by Q-PCR; conditions: 10 ng/ml LPS 4 h, compared to non-sense control shRNA, p<0.0001
Method: Bone marrow-derived macrophages were generated as described and replated at 1.0×10^6 cells/well on 6-well plates (Costar) in DME containing 10% FCS and 20% L-cell conditioned media. The following day, triplicate cultures were incubated with murine IFNγ (10 ng/ml) and LPS (20 ng/ml), unless otherwise indicated. Total cellular RNA was isolated using the RNeasy kit (QIAGEN, Valencia, Calif.) and first strand cDNA synthesis performed using Superscript II RNASE H— reverse transcriptase (Invitrogen, Carlsbad, Calif.) according to the manufacturer's instructions. Real-time PCR was performed on an ABI Prism 7900HT sequence detection system (Applied Biosystems, Foster City, Calif.). Cycling conditions were as follows: initial denaturation (95° C. for 15 min), followed by 40 cycles of 94° C. for 15 s, 50° C. (SSB-1, -4), 60° C. (SSB-2, -3) or 49° C. (GAPDH) for 30 s and 72° C. for 15 s with a transition rate of 20° C./s and a single fluorescence measurement, melting curve program (60° C.-95° C., with a heating rate of 0.1° C./s and continuous fluorescence measurement) and a final cooling step to 40° C. All PCR reactions were performed using the QuantiTect SYBR Green PCR Kit (QIAGEN) in 10 μl reactions containing […] of forward and reverse primers, 5 μl of QuantiTect Master Mix and 4 μl of cDNA (diluted 1 in 5). […]

## Spsb1 shRNA: retroviral shRNAmir construct targeting SPSB1, CCAGATGCAGAGAATAAACTA (SEQ ID NO:84), in LMP vector
iNOS protein in BMDM; 20 ng/ml LPS or 25 μg/ml PolyIC overnight, stimulus removed
  kinetics of iNOS clearance: essentially unchanged
iNOS protein in BMDM; 20 ng/ml LPS or 25 μg/ml PolyIC overnight, stimulus removed, compared to non-sense
  iNOS amount in degradation experiment: increased amount of iNOS
iNOS protein in BMDM; 100 ng/ml LPS or 25 μg/ml PolyIC
  iNOS protein amount during induction timecourse: more iNOS protein
iNOS protein in BMDM; 100 ng/ml LPS or 25 μg/ml PolyIC, non-sense shRNA control 8 h
  time of first observed iNOS expression post-treatment: 6 h
NO production in BMDM; 24 h, LPS and PolyIC, compared to non-sense
  NO production: increase
NO production in BMDM; 48 h, LPS, p=0.0446
  NO production: significant increase
NO production in BMDM; 48 h, PolyIC
  NO production: increase
Spsb1 mRNA
  Spsb1 expression: significantly reduced
